Patent publication US12281122B1, “PI3K inhibitors” (Cogent Biosciences, Inc., priority 2023, dated 2025)
pIC50: −log10 of the molar value.

How the values were obtained:
[1] = system: T47D (PI3Kα-H1047R) cell line; test: HTRF phospho-AKT(S473) cell assay in T47D cells; type: cell-based, human
Procedure, shortened: (§1)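 Cells plated overnight (T47D in RPMI/10% FBS/0.2 units/mL insulin; SKBR3 in McCoy's 5A/10% FBS), then given 12-point 1:3 compound series (top 5 μM T47D, 10 μM SKBR3; ≤0.5% DMSO) for 2 h at 37° C. SKBR3 stimulated with 70 ng/ml PDGF-BB for final 15 min. Lysate pAKT(S473) by HTRF; IC50 calculated.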

[2] = system: SKBR3 (PI3Kα-Wild Type) cell line; test: HTRF phospho-AKT(S473) cell assay in SKBR3 cells; type: cell-based, human
Procedure, shortened: as §1

[3] = Homo sapiens; HTRF phospho-AKT(S473), T47D (PI3Kα-H1047R) cells, 2 hours compound incubation
[4] = Homo sapiens, SK-BR-3; HTRF phospho-AKT(S473), SKBR3 (PI3Kα-Wild Type) cells, 2 hours compound incubation, PDGF-BB stimulated
[5] = Homo sapiens; T47D (PI3Kα-H1047R) cells, HTRF phospho-AKT(S473), 2 hours compound incubation
[6] = Homo sapiens, SK-BR-3; SKBR3 (PI3Kα-Wild Type) cells, HTRF phospho-AKT(S473), 2 hours compound incubation, PDGF-BB stimulated

pIC50 [1, 3]	pIC50 [2, 4]	pIC50 [1, 5]	pIC50 [2, 6]	Structure (SMILES)
6.30 to 6.60	≤ 5.30	–	–	Cc1cc([C@@H](C)Nc2ccc(Cl)nc2C(=O)NS(C)(=O)=O)c2nc(-c3ccc4oc(C)nc4c3)n(C)c(=O)c2c1 [Compound 821, (R)-6-chloro-3-((1-(3,6-dimethyl-2-(2-methylbenzo[d]oxazol-5-yl)-4-oxo-3,4-dihydroquinazolin-8-yl)ethyl)amino)-N-(methylsulfonyl) picolinamide]
6.30 to 6.60	≤ 5.30	–	–	Cc1cc([C@@H](C)Nc2ccc(Cl)nc2C(=O)NS(C)(=O)=O)c2nc(N3CCC(c4nn(C)c5ccccc45)CC3)n(C)c(=O)c2c1 [Compound 675, (R)-6-chloro-3-((1-(3,6-dimethyl-2-(4-(1-methyl-1H-indazol-3-yl)piperidin-1-yl)-4-oxo-3,4-dihydroquinazolin-8-yl)ethyl)amino)-N-(methylsulfonyl) picolinamide]
6.30 to 6.60	≤ 5.30	–	–	Cc1cc([C@@H](C)Nc2ccc(Cl)nc2C(=O)NS(C)(=O)=O)c2nc(N3CC[C@H](N(C)c4ncc(F)cn4)C3)n(C)c(=O)c2c1 [Compound 739, 6-chloro-3-(((R)-1-(2-((S)-3-((5-fluoropyrimidin-2-yl)(methyl)amino)pyrrolidin-1-yl)-3,6-dimethyl-4-oxo-3,4-dihydroquinazolin-8-yl)ethyl)amino)-N-(methylsulfonyl) picolinamide]
> 6.60	5.30 to 6.00	–	–	Cc1cc([C@@H](C)Nc2ccc(Cl)nc2C(=O)NS(C)(=O)=O)c2nc(-c3ccc(-c4cnn(C)c4)c(F)c3)n(C)c(=O)c2c1 [Compound 794, (R)-6-chloro-3-((1-(2-(3-fluoro-4-(1-methyl-1H-pyrazol-4-yl)phenyl)-3,6-dimethyl-4-oxo-3,4-dihydroquinazolin-8-yl)ethyl)amino)-N-(methylsulfonyl) picolinamide]
6.30 to 6.60	≤ 5.30	–	–	Cc1cc([C@@H](C)Nc2ccc(Cl)nc2C(=O)NS(C)(=O)=O)c2nc(N3CCC(c4nc(C)nn4C)CC3)n(C)c(=O)c2c1 [Compound 523, (R)-6-chloro-3-((1-(2-(4-(1,3-dimethyl-1H-1,2,4-triazol-5-yl)piperidin-1-yl)-3,6-dimethyl-4-oxo-3,4-dihydroquinazolin-8-yl)ethyl)amino)-N-(methylsulfonyl) picolinamide]
–	–	> 6.60	5.30 to 6.00	Cc1cc([C@@H](C)Nc2ccc(Cl)nc2C(=O)NS(C)(=O)=O)c2nc(N3C[C@@H]4C[C@H]3CN4c3ccn(C)n3)n(C)c(=O)c2c1 [Compound 228, 6-chloro-3-(((R)-1-(3,6-dimethyl-2-((1S,4S)-5-(1-methyl-1H-pyrazol-3-yl)-2,5-diazabicyclo[2.2.1]heptan-2-yl)-4-oxo-3,4-dihydroquinazolin-8-yl)ethyl)amino)-N-(methylsulfonyl) picolinamide]
6.30 to 6.60	≤ 5.30	–	–	Cc1cc([C@@H](C)Nc2ccc(Cl)nc2C(=O)NS(C)(=O)=O)c2nc(N3C[C@@H]4C(c5ncc(Cl)cn5)[C@@H]4C3)n(C)c(=O)c2c1 (stereo partly drawn) [Compound 535, 6-chloro-3-(((1R)-1-(2-((1R,5S)-6-(5-chloropyrimidin-2-yl)-3-azabicyclo[3.1.0]hexan-3-yl)-3,6-dimethyl-4-oxo-3,4-dihydroquinazolin-8-yl)ethyl)amino)-N-(methylsulfonyl) picolinamide]
–	–	> 6.60	5.30 to 6.00	Cc1cc([C@@H](C)Nc2ccc(Cl)nc2C(=O)NS(C)(=O)=O)c2nc(N3Cc4cn(-c5ccnn5C)nc4C3)n(C)c(=O)c2c1 [Compound 277, (R)-6-chloro-3-((1-(3,6-dimethyl-2-(2-(1-methyl-1H-pyrazol-5-yl)-2,6-dihydropyrrolo[3,4-c]pyrazol-5(4H)-yl)-4-oxo-3,4-dihydroquinazolin-8-yl)ethyl)amino)-N-(methylsulfonyl) picolinamide]
